Results reported in the NIST ThermoML archive (doi:10.1021/je050343i).
± gives the expanded uncertainty stated by the source.

Assay: activity coefficient (dimensionless); of the first substance listed, at infinite dilution; xn = mol fraction of the nth substance listed
Settings: Liquid, Chromatography, x1 = 0

`CC(F)F` [1,1-difluoroethane] + C=C(C)CCO showed an activity coefficient (249.95 K) of 4.94 ± 0.34, an activity coefficient (269.95 K) of 4.53 ± 0.31 and an activity coefficient (289.9 K) of 4.12 ± 0.28. The activity coefficient (309.99 K) was 3.74 ± 0.25 and the activity coefficient (330 K) was 3.5 ± 0.24.
`CC(F)F` [1,1-difluoroethane] + C=CC(C)(C)O showed an activity coefficient (250 K) of 4.68 ± 0.32, an activity coefficient (269.96 K) of 3.99 ± 0.27 and an activity coefficient (289.99 K) of 3.39 ± 0.23. The activity coefficient (309.99 K) was 2.89 ± 0.2 and the activity coefficient (330 K) was 2.47 ± 0.17.
Compound `C=CC=C` [1,3-butadiene] + C=C(C)CCO has an activity coefficient (249.92 K) of 2.76 ± 0.19, an activity coefficient (270.04 K) of 2.69 ± 0.18 and an activity coefficient (289.99 K) of 2.65 ± 0.18. For the same compound, the activity coefficient (309.99 K) was 2.56 ± 0.17 and the activity coefficient (330 K) was 2.45 ± 0.17.
In the case of `C=CC=C` [1,3-butadiene] + C=CC(C)(C)O, the activity coefficient (249.98 K) is reported as 2.43 ± 0.17, the activity coefficient (269.95 K) is reported as 2.36 ± 0.16 and the activity coefficient (289.99 K) is reported as 2.22 ± 0.15. It also gave an activity coefficient (309.99 K) of 2.05 ± 0.14 and an activity coefficient (330 K) of 1.88 ± 0.13.
`C=CCC` [1-butene] + C=C(C)CCO showed an activity coefficient (249.92 K) of 3.57 ± 0.24, an activity coefficient (270.04 K) of 3.47 ± 0.24 and an activity coefficient (289.99 K) of 3.4 ± 0.23. It also gave an activity coefficient (309.99 K) of 3.28 ± 0.22 and an activity coefficient (330 K) of 3.13 ± 0.21.
`C=CCC` [1-butene] + C=CC(C)(C)O gave an activity coefficient (249.98 K) of 2.74 ± 0.19, an activity coefficient (269.95 K) of 2.65 ± 0.18 and an activity coefficient (289.99 K) of 2.52 ± 0.17. The activity coefficient (309.99 K) was 2.37 ± 0.16 and the activity coefficient (330 K) was 2.2 ± 0.15.
Work on `CC(C)C` [2-methylpropane] + C=C(C)CCO yielded an activity coefficient (249.92 K) of 5.27 ± 0.36, an activity coefficient (270.04 K) of 4.98 ± 0.34 and an activity coefficient (289.99 K) of 4.73 ± 0.32. The activity coefficient (309.99 K) was 4.54 ± 0.31 and the activity coefficient (330 K) was 4.29 ± 0.29.
For `CC(C)C` [2-methylpropane] + C=CC(C)(C)O, the activity coefficient (249.98 K) was 3.56 ± 0.24, the activity coefficient (269.95 K) was 3.42 ± 0.23 and the activity coefficient (289.99 K) was 3.27 ± 0.22. The activity coefficient (309.99 K) was 3.06 ± 0.21 and the activity coefficient (330 K) was 2.83 ± 0.19.
Compound `C=C(C)C` [2-methylpropene] + C=C(C)CCO has an activity coefficient (249.92 K) of 3.49 ± 0.24, an activity coefficient (270.04 K) of 3.41 ± 0.23 and an activity coefficient (289.99 K) of 3.32 ± 0.23. For the same compound, the activity coefficient (309.99 K) was 3.21 ± 0.22 and the activity coefficient (330 K) was 3.04 ± 0.21.
Compound `C=C(C)C` [2-methylpropene] + C=CC(C)(C)O has an activity coefficient (249.98 K) of 2.72 ± 0.19, an activity coefficient (269.95 K) of 2.61 ± 0.18 and an activity coefficient (289.99 K) of 2.47 ± 0.17. The activity coefficient (309.99 K) was 2.31 ± 0.16 and the activity coefficient (330 K) was 2.15 ± 0.15.
For `C/C=C/C` [(E)-2-butene] + C=C(C)CCO, the activity coefficient (249.92 K) was 3.55 ± 0.24, the activity coefficient (270.04 K) was 3.42 ± 0.23 and the activity coefficient (289.99 K) was 3.35 ± 0.23. For the same compound, the activity coefficient (309.99 K) was 3.27 ± 0.22 and the activity coefficient (330 K) was 3.12 ± 0.21.
In the case of `C/C=C/C` [(E)-2-butene] + C=CC(C)(C)O, the activity coefficient (249.98 K) is reported as 2.73 ± 0.19, the activity coefficient (269.95 K) is reported as 2.62 ± 0.18 and the activity coefficient (289.99 K) is reported as 2.51 ± 0.17. For the same compound, the activity coefficient (309.99 K) was 2.35 ± 0.16 and the activity coefficient (330 K) was 2.2 ± 0.15.
In the case of `C/C=C\C` [(Z)-2-butene] + C=C(C)CCO, the activity coefficient (249.95 K) is reported as 3.26 ± 0.22, the activity coefficient (269.95 K) is reported as 3.2 ± 0.22 and the activity coefficient (289.9 K) is reported as 3.08 ± 0.21. The activity coefficient (309.99 K) was 2.9 ± 0.2 and the activity coefficient (330 K) was 2.77 ± 0.19.
For `C/C=C\C` [(Z)-2-butene] + C=CC(C)(C)O, the activity coefficient (250 K) was 2.55 ± 0.17, the activity coefficient (269.96 K) was 2.48 ± 0.17 and the activity coefficient (289.99 K) was 2.36 ± 0.16. For the same compound, the activity coefficient (309.99 K) was 2.23 ± 0.15 and the activity coefficient (330 K) was 2.05 ± 0.14.
`CCCC` [butane] + C=C(C)CCO showed an activity coefficient (249.92 K) of 4.89 ± 0.33, an activity coefficient (270.04 K) of 4.61 ± 0.31 and an activity coefficient (289.99 K) of 4.41 ± 0.3. The activity coefficient (309.99 K) was 4.18 ± 0.28 and the activity coefficient (330 K) was 3.99 ± 0.27.
In the case of `CCCC` [butane] + C=CC(C)(C)O, the activity coefficient (249.98 K) is reported as 3.3 ± 0.22, the activity coefficient (269.95 K) is reported as 3.22 ± 0.22 and the activity coefficient (289.99 K) is reported as 3.08 ± 0.21. It also gave an activity coefficient (309.99 K) of 2.87 ± 0.2 and an activity coefficient (330 K) of 2.65 ± 0.18.
In the case of `CCCl` [chloroethane] + C=C(C)CCO, the activity coefficient (249.94 K) is reported as 2.49 ± 0.17, the activity coefficient (269.95 K) is reported as 2.35 ± 0.16 and the activity coefficient (289.9 K) is reported as 2.32 ± 0.16. The activity coefficient (309.99 K) was 2.23 ± 0.15 and the activity coefficient (330 K) was 1.99 ± 0.14.
`CCCl` [chloroethane] + C=CC(C)(C)O showed an activity coefficient (250.01 K) of 2.28 ± 0.16, an activity coefficient (269.96 K) of 2.16 ± 0.15 and an activity coefficient (289.99 K) of 1.96 ± 0.13. The activity coefficient (309.99 K) was 1.69 ± 0.11 and the activity coefficient (330 K) was 1.56 ± 0.1.
In the case of `COC` [dimethyl ether] + C=C(C)CCO, the activity coefficient (249.95 K) is reported as 1.28 ± 0.08, the activity coefficient (269.95 K) is reported as 1.23 ± 0.08 and the activity coefficient (289.9 K) is reported as 1.2 ± 0.08. For the same compound, the activity coefficient (309.99 K) was 1.17 ± 0.07 and the activity coefficient (330 K) was 1.15 ± 0.07.
With `COC` [dimethyl ether] + C=CC(C)(C)O the activity coefficient (250.01 K) was 0.62 ± 0.04, the activity coefficient (269.96 K) was 0.67 ± 0.05 and the activity coefficient (289.99 K) was 0.7 ± 0.05. It also gave an activity coefficient (309.99 K) of 0.72 ± 0.05 and an activity coefficient (330 K) of 0.74 ± 0.05.
Compound `CCC` [propane] + C=C(C)CCO has an activity coefficient (249.92 K) of 4.36 ± 0.3, an activity coefficient (270.04 K) of 4.19 ± 0.29 and an activity coefficient (289.99 K) of 4.1 ± 0.28. It also gave an activity coefficient (309.99 K) of 3.86 ± 0.26 and an activity coefficient (330 K) of 3.7 ± 0.25.
In the case of `CCC` [propane] + C=CC(C)(C)O, the activity coefficient (249.98 K) is reported as 3.08 ± 0.21, the activity coefficient (269.95 K) is reported as 2.97 ± 0.2 and the activity coefficient (289.99 K) is reported as 2.86 ± 0.19. It also gave an activity coefficient (309.99 K) of 2.7 ± 0.18 and an activity coefficient (330 K) of 2.54 ± 0.17.
With `C=CC` [propene] + C=C(C)CCO the activity coefficient (249.92 K) was 3.07 ± 0.21, the activity coefficient (270.04 K) was 3.04 ± 0.21 and the activity coefficient (289.99 K) was 2.99 ± 0.2. The activity coefficient (309.99 K) was 2.92 ± 0.2 and the activity coefficient (330 K) was 2.8 ± 0.19.
In the case of `C=CC` [propene] + C=CC(C)(C)O, the activity coefficient (249.98 K) is reported as 2.46 ± 0.17, the activity coefficient (269.95 K) is reported as 2.38 ± 0.16 and the activity coefficient (289.99 K) is reported as 2.3 ± 0.16. It also gave an activity coefficient (309.99 K) of 2.17 ± 0.15 and an activity coefficient (330 K) of 2.05 ± 0.14.
